Measured values from ChEMBL document CHEMBL3526002, “Tissue distribution and identification of radioactivity components at elimination phase after oral administration of [¹⁴C]CS-1036, an α-amylase inhibitor, to rats” (Drug Metab Dispos, 2013).

What was measured:
Set-up in all cases: dose 5 mg/kg, dosed compound name [14C]CS-1036, route oral
Conditions in all cases: in vivo
Stomach [1] = test: Drug uptake in albino F344/DuCrlCrlj rat stomach at 5 mg/kg, po after 8 hrs by liquid scintillation counting; assay type: ADME, organism-based
[2] = Drug uptake in albino F344/DuCrlCrlj rat trachea assessed as ng equivalent of CS-1036 at 5 mg/kg, po after 1 hr by liquid scintillation counting; assay type: ADME, organism-based
Heart [3] = test: Drug uptake in albino F344/DuCrlCrlj rat heart assessed as ng equivalent of CS-1036 at 5 mg/kg, po after 72 hrs by liquid scintillation counting; assay type: ADME, organism-based
Stomach [4] = test: Drug uptake in albino F344/DuCrlCrlj rat stomach assessed as ng equivalent of CS-1036 at 5 mg/kg, po after 72 hrs by liquid scintillation counting; assay type: ADME, organism-based
[5] = Drug uptake in albino F344/DuCrlCrlj rat eyeball assessed as ng equivalent of CS-1036 at 5 mg/kg, po after 168 hrs by liquid scintillation counting; assay type: ADME, organism-based
[6] = Drug uptake in albino F344/DuCrlCrlj rat skeletal muscle at 5 mg/kg, po after 72 hrs by liquid scintillation counting; assay type: ADME, organism-based, Muscle tissue
Plasma = test: Drug uptake in albino F344/DuCrlCrlj rat plasma at 5 mg/kg, po after 1 hr by liquid scintillation counting; assay type: ADME, organism-based
Kidney = test: Drug uptake in albino F344/DuCrlCrlj rat kidney assessed as ng equivalent of CS-1036 at 5 mg/kg, po after 8 hrs by liquid scintillation counting; assay type: ADME, organism-based
Heart [7] = test: Drug uptake in albino F344/DuCrlCrlj rat heart assessed as ng equivalent of CS-1036 at 5 mg/kg, po after 336 hrs by liquid scintillation counting; assay type: ADME, organism-based
Cerebellum = test: Drug uptake in albino F344/DuCrlCrlj rat cerebellum at 5 mg/kg, po after 4 hrs by liquid scintillation counting; assay type: ADME, organism-based
Adrenal gland = test: Drug uptake in albino F344/DuCrlCrlj rat adrenal gland at 5 mg/kg, po after 336 hrs by liquid scintillation counting; assay type: ADME, organism-based

- Radiolabel recovery (Stomach [1]): 135 ngequiv/g
- Radiolabel recovery [2]: 7.4 ngequiv/g
- Radiolabel recovery (Heart [3]): 9.2 ngequiv/g
- Radiolabel recovery (Stomach [4]): 21.8 ngequiv/g
- Radiolabel recovery [5]: 2.3 ngequiv/g
- Radiolabel recovery [6]: 16.5 ngequiv/g
- Radiolabel recovery (Plasma): 90.6 ngequiv/ml
- Radiolabel recovery (Kidney): 1970 ngequiv/g
- Radiolabel recovery (Heart [7]): 3.63 ngequiv/g
- Radiolabel recovery (Cerebellum): 11.2 ngequiv/g
- Radiolabel recovery (Adrenal gland): 19.5 ngequiv/g
SMILES: C[C@H]1O[C@@H](O[C@H]2[C@H](O)[C@@H](O)[C@@H](O[14C@H]3[14C@H](O)[14CH2]N[14C@@H]3[14CH2]O)O[C@@H]2CO)[C@H](O)[C@@H](O)[C@@H]1O
